# Reference: US12239643B2, “Therapeutic agent for inflammatory diseases, autoimmune diseases, fibrotic diseases, and cancer diseases” (MEIJI SEIKA PHARMA CO., LTD., priority 2018, dated 2025)
# Experiments:
# IL-4 = assay: Cytokine suppression using human peripheral blood mononuclear cells: IL-4; type: cell-based; conditions: human PBMC, CD3 antibody and CD28 antibody; read-out: IL-4 Inhibitory Activity, Human PBMC (Test Example 4)
# Procedure: First, peripheral blood mononuclear cells (PBMC) were separated from whole blood by specific gravity centrifugation. Then, the isolated peripheral blood mononuclear cells were added to RPMI-1640 medium (containing 10% fetal bovine serum, penicillin, streptomycin, L-glutamine, and 2-mercaptoethanol), and cultured in a 96-well plate at 37° C. under 5% CO2 for 0 to 1 hour. The test compound dissolved in dimethyl sulfoxide was added to each well, followed by further culture at 37° C. under 5% CO2 for 1 hour. A medium containing only dimethyl sulfoxide instead of the test compound was added to the control well. […]
# The measurement results obtained by measuring the TNFα inhibitory activity and IL-5 inhibitory activity (50% inhibitory concentration) of the test compounds by the above method were evaluated in accordance with the following evaluated basis; A: less than 10 nM, B: 10 nM or more and less than 100 nM, and C: 100 nM or more. In addition, the measurement results obtained by measuring the IL-17A inhibitory activity, IL-23 inhibitory activity, IL-4 inhibitory activity, and IL-13 inhibitory activity (50% inhibitory concentration) of the test compounds were evaluated in accordance with the following evaluated basis; A: less than 500 nM, B: 500 nM or more and less than 5000 nM, and C: 5000 nM or more.
# [1] = test system: HCT-116 (colorectal cancer); assay: Antitumor activity: growth inhibition of HCT-116; type: cell-based; conditions: Homo sapiens, 120 h; HCT-116, culturing for 5 days; read-out: 50% growth inhibitory concentration
# Procedure: (§1) As antitumor activity, 50% growth inhibitory concentration of various cancer cells (CEM-C1 (blood cancer (leukemia)), SU-DHL-4 (blood cancer (lymphoma)), A549 (lung cancer), HCT-116 (colorectal cancer), and Daoy (brain tumor)) was calculated as follows. First, each of the above cancer cells was seeded on a 384-well plate and cultured overnight at 37° C. under 5% CO2. After that, the test compound was added at various concentrations on the next day, and each number of cells was measured after culturing for 5 days. The 50% growth inhibitory concentration was defined as the test compound concentration at which the number of cells measured is an intermediate value between the number of cells after culture for 5 days under the same conditions without the addition of the test compound and the number of cells at the time of seeding (before the start of culture). The measurement results obtained by measuring the 50% growth inhibitory concentration of the test compound by the above method were evaluated in accordance with the following evaluated basis; A: less than 10 μM, B: 10 μM or more and less than 50 μM, and C: 50 μM or more. As a result of using apremilast as the test compound, the evaluation was C in all cancer cells. On the other hand, as a result of using the compound obtained in Example 248 as the test compound, the evaluation was A in all cancer cells.
# Daoy (brain tumor) = assay: Antitumor activity: growth inhibition of Daoy; type: cell-based; conditions: Homo sapiens, 120 h, culturing for 5 days, read-out: 50% growth inhibitory concentration
# Procedure: as §1
# [2] = test system: type II collagen-induced arthritis, DBA-1 JNCrlj mice; assay: Mouse CIA (arthritis) model; type: in vivo; conditions: oral, day 31 after the initial sensitization of type II collagen
# Procedure: Evaluation was carried out using male DBA-1 JNCrlj mice (6 to 8 weeks of age). First, 150 μg/0.1 mL of type II collagen (bovine)/ACF emulsion was intradermally administered to the mouse ridge to cause primary sensitization. Twenty-one days later, 100 μg/0.1 mL of type II collagen (bovine)/AIF emulsion was similarly intradermally administered to the ridge to cause secondary sensitization. Note that, in the blank group, saline was intradermally administered to the ridge at the first sensitization and second sensitization. Next, for 10 days from the day of secondary sensitization, 0.1 to 20 mg/kg of the test compound dissolved or suspended in 0.5% w/v methylcellulose (0.5% MC) was orally administered once or twice a day.
# The arthritis score of each limb was judged to be 0 to 4 by visual inspection and palpation (0: no symptoms, 1: one finger is red and swollen, 2: two or more fingers or in step is red and swollen, 3: fingers, in step, and heel are red and swollen, 4: movement of joints throughout the limb is poor), and the total of the limbs was used as the individual score, and the average score of the individual group administered with each test compound was calculated and used as the arthritis score. In addition, the foot volume (mL) of the left and right hind limbs was measured using a foot volume measuring device, and the edema rate was calculated by the following formula. Edema Rate (%)={(Left and Right Added Footpad Volume After Sensitization−Left and Right Added Footpad Volume Before Sensitization)/Left and Right Added Footpad Volume Before Sensitization}×100
# The arthritis score of each test compound on day 31 after the initial sensitization of type II collagen was evaluated by the above method in accordance with the following evaluated basis; A: less than 2, B: 2 or more and less than 3, and C: 3 or more. In addition, the edema rate of each test compound on day 31 after the initial sensitization of type II collagen was evaluated in accordance with the following evaluated basis; A: less than 10%, B: 10% or more and less than 20%, and C: 20% or more. As a result of using apremilast as the test compound, the arthritis score and the edema rate were both evaluated as B. On the other hand, as a result of using the compound obtained in Example 248 as the test compound, the arthritis score and the edema rate were both evaluated as A.
# [3] = test system: DSS-induced colitis, C57BL/6J mice; assay: DSS-induced mouse colitis model; type: in vivo; conditions: oral once a day, DSS in drinking water
# Procedure: Evaluation was carried out using male C57BL/6J mice (7 weeks of age). The mice were allowed to freely drink dextran sodium sulfate (DSS) dissolved in water for 5 days, and then allowed to freely drink water for 4 to 5 days. The test compound was dissolved or suspended in 0.5% w/v methylcellulose (0.5% MC) and orally administered once a day from the first day. The blank was a non-inflammation-induced group orally administered with 0.5% MC instead of the test compound and allowed to freely drink water instead of DSS, and the inflammation-induced control was a group orally administered with 0.5% MC instead of the test compound. The colitis inhibitory effect was evaluated by the disease activity index (DAI) score.
Compound,IC50 (IL-4),IC50 [1],IC50 (Daoy (brain tumor)),arthritis score [2],edema rate [2],disease activity index (DAI) score [3]
"CC(C)(O)C(F)(F)Oc1ccc(-c2nccs2)c2oc(N3CC4CC(C3)N4)nc12 [Example 248, 1-((2-(3,6-Diazabicyclo[3.1.1]heptan-3-yl)-7-(thiazol-2-yl)benzo[d]oxazol-4-yl)oxy)-1,1-difluoro-2-methylpropan-2-ol]",< 0.5 µM,< 10 µM,< 10 µM,A (A: less than 2),A (A: less than 10%),suppressed the DAI score at a lower concentration than that of apremilast
"CCOc1cc([C@@H](CS(C)(=O)=O)N2C(=O)c3cccc(NC(C)=O)c3C2=O)ccc1OC [apremilast, reference compound]",≥ 5 µM,≥ 50 µM,≥ 50 µM,B (B: 2 or more and less than 3),B (B: 10% or more and less than 20%),–
